In patent publication US12642795B2, “MRGPRX2 antagonist for the treatment of pseudo allergic reactions” (The University of Hong Kong, priority 2021, dated 2026):

Key:
Human LAD-2 mast cells = experiment: β-Hexosaminidase MCs degranulation assay; type: cell-based; conditions: LAD2, LAD-2 MCs, followed by EC90 concentration (10 μM) of C48/80
Method: Human LAD-2 mast cells were seeded at 2×10^4 cells/well/80 μL in a 96-well plate. A 10× stock of antagonist were prepared in HEPES buffer (HEPES (10 mM), NaCl (137 mM), KCl (2.7 mM), Na2HPO4·7H2O (0.4 mM), glucose (5.6 mM), CaCl2·2H2O (1.8 mM), MgSO4·7H2O (1.3 mM), bovine serum albumin (0.04%), pH 7.4). […] The plate was spun at 450×g for 5 minutes at room temperature, and 50 μL of supernatant was aliquoted to a new 96 well plate. The cells were lysed with 100 μL of 0.1% Triton X-100, and 50 μL of lysate was aliquoted to another 96 well plates. A 1.3 mg/ml solution of the substrate PNAG (4-Nitrophenyl N-acetyl-β-D-glucosaminide) was prepared in 0.1 M citric acid/sodium citrate buffer (pH 4.5, 24.087 g/L Sodium Citrate dihydrate, and 3.471 g/L Citric Acid). 50 μL of PNAG was added to each well of supernatant and lysate, and cells were incubated for 90 min at 37° C. (without CO2). The reaction was stopped by adding 50 μL of 0.4 M Glycine buffer. The extent of yellow color was measured at 405 nm using Victor 4× plate reader (PerkinElmer), and percentage MCs degranulation (β-hexosaminidase release) was calculated by using the formula; % MCs degranulation: […]

MRGPRX2 = target: T1, MRGPRX2 (Homo sapiens, UniProt Q96LB1); experiment: MRGPRX2 activation assay (PRESTO-Tango assay); type: cell-based; conditions: MRGPRX2-Tango transfected HTLA cells, followed by EC90 concentration (10 μM) of C48/80
T1 construct: expressed in transfected cells; host or cells: HTLA cells
T1 sequence (Q96LB1 1-330): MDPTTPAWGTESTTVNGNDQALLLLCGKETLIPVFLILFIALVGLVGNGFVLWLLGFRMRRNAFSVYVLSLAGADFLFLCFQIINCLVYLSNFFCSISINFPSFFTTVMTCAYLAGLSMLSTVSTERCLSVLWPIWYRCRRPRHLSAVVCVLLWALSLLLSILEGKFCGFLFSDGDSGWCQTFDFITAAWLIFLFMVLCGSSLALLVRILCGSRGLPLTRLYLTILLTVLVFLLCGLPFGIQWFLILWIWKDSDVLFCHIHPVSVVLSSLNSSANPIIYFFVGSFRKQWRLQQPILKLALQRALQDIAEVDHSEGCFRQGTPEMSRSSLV
Method: On day 1 of the experiment, HTLA cells were seeded at 1×10^6 cells per 100 mm cell culture dish for transfection. On the following day (day 2), HTLA cells were transfected with Tango MRGPRX2 DNA using the Lipofectamine transfection reagent (Thermo Fischer Scientific). On day 3, Tango MRGPRX2 transfected cells were transferred into 96-well white clear-bottom cell culture plates at a density of 2×10^4 cells/well/80 μL (PerkinElmer Life Science).

Human LAD-2 MCs = experiment: Intracellular Ca2+ flux assay (Fluo-4 NW); type: cell-based; conditions: LAD2 MCs; for efficacy in Ca2+ flux reduction at 12.5 μM, 25 μM and 50 μM: ****P<0.0001 vs C48/80; for reduction of C48/80 induced Ca2+ flux: C48/80 EC90 concentration
Method: The intracellular Ca^2+ flux was measured in human LAD-2 MCs by using the Fluo-4 NW calcium assay kit and the protocol according to the manufacturer (Molecular Probe, Invitrogen, USA). Briefly, LAD-2 cells were plated in a 96-well black well plate (SPL Life Sciences) at a density of 1×10^5 cells/well/40 μL in assay buffer and incubated for 1 h at 37° C. incubators. After 1 h, 40 μL of the 2× dye loading solution and antagonist or buffer was added to the cells (10 μL of 10× stock). […] After one hour of incubation, a graded concentration of agonist or buffer was added to the cells (10 μL of 10× stock). The fluorescence was measured at an excitation wavelength of 494 nm and an emission wavelength of 516 nm using Victor 4× plate reader (PerkinElmer) for 150 seconds. The ΔF was calculated by […] and plotted by using Graph Pad Prism.

human LAD2 MCs = experiment: Monocyte chemoattractant protein-1 (MCP-1) measurement by ELISA; type: cell-based; conditions: 12.5 μM, 25 μM and 50 μM; compared to C48/80 control
Method: MCP-1 and PGD2 were measured from human LAD2 MCs via individual ELISA kits. Briefly, MCs were seeded at a density of 1.5×10^5 cells/80 μL/well in a 96 well plate in complete Stem-Pro 34 media. […] The cells were centrifuged to collect the supernatant and stored at −80° C. until analyzed. […] After 24 hours, cells were centrifuged to discard the media and lysed with 0.1M potassium phosphate via sonication. The supernatant of cell lysate was collected and stored at −80° C. until analyzed. MCP-1 (Abcam, Cambridge, UK) and PGD2 (Cayman Chemicals, MI, USA) were quantified by ELISA according to manufacturer instruction.

C57/BL/6N mice [1] = experiment: In-vivo local anaphylaxis/pseudo allergic mice model (C48/80 induced); set-up: species or system mouse; conditions: 5 mg/kg intraperitoneally, vs C48/80 mice; for increase in paw thickness: 15 min after C48/80 (30 μg/ml) in paw; for Evans blue dye extravasation: 15 min after C48/80 (30 μg/ml)
From the text: Young adult male mice (C57/BL/6N aged 6-8 weeks old, n=6/group) were used to measure the local anaphylaxis activity by measuring Evans blue tissue extravasation in paw and ear tissue. The animal experiments were approved by the Committee on the Use of Live Animals in Teaching and Research (CULATR) (Animal ethical approval number CULATR 5125-19). Mice were anesthetized via intraperitoneal injection of ketamine and xylazine, and paw thickness was measure using a Vernier caliper. The antagonists (GE0117, GE1109, and GE1111) were injected at a dose of 5 mg/kg body weight via intraperitoneal injection followed by a tail vein injection of 50 μL 12.5% Evans blue in saline (irrespective of the bodyweight). After thirty minutes, C48/80 (10 μL of 30 μg/ml) was injected into one paw and ear, while saline was injected into the other paw and ear as a negative control. After fifteen minutes, the paw and ear tissue were photographed, and the paw thicknesses were measured again to calculate % increase in paw thickness. Mice were euthanized by cervical dislocation under anesthesia, and the collected paw and ear tissues were dried at 50° C. for 24 hours and weighed separately. Evans blue was extracted with formamide (500 μL/tissue) by incubating at 50° C. for 24 h. The supernatant was aliquoted into 96-well plates (200 μL/well, duplicate), and OD was measure at 595 nm using a Victor 4× plate reader (PerkinElmer). The paw edema/inflammation was measured as % increase in paw thickness=

C57/BL/6N mice [2] = experiment: In-vivo systemic anaphylaxis mice model (C48/80 induced); set-up: species or system mouse; conditions: 5 mg/kg intraperitoneally, C48/80 8 mg/kg intraperitoneally
Method: Animals (C57/BL/6N aged 6-8 weeks old, n=6-8/group) were transported to the procedure area the day before injections to minimize stress. The antagonists (GE0117, GE1109, or GE1111) or vehicle was injected intraperitoneally, and mice were kept in the cage for 30 minutes. After 30 minutes of saline (negative control), 8 mg/kg of C48/80 was injected intraperitoneally. The volume of intraperitoneal injection was 10 ml/kg body weight as per AAALAC guidelines. The injection site was swabbed with cotton soaked in 70% alcohol, and the mouse was placed in a separate cage as one mouse per cage. Body core temperature was measured before (basal) and after the injections with an IR non-contact thermometer for one hour. Also, mice were monitored for anaphylaxis symptoms/severity and scored from 0-5 for 1 h or until death following C48/80 injection, whichever was first. Briefly, the scoring system was followed as 0, no symptoms; 1, scratching and rubbing around the nose and head; 2, puffiness around the eyes and mouth, diarrhea, pilar erecti, reduced activity, and/or decreased activity with an increased respiratory rate; 3, wheezing, labored respiration, and cyanosis around the mouth and the tail; 4, no activity after prodding or tremor and convulsion; 5, death. The body core temperature and anaphylaxis score were plotted using Graph Pad Prism.

mice ear tissue MCs = experiment: Histological analysis of ear tissue (H&E, Toluidine blue; in-vivo MCs degranulation); set-up: species or system mouse; conditions: 5 mg/kg intraperitoneally, vs C48/80 treated group
Method: The mice were anesthetized with ketamine/xylazine and were injected with antagonists (GE0117, GE1109, and GE1111) at a dose of 5 mg/kg body weight intraperitoneally. After 30 minutes, C48/80 (10 μL of 30 μg/ml) and saline (as negative control) were injected into the ear. Fifteen minutes later, the mice were sacrificed, and the injection site of the ear was excised, washed with PBS, and fixed with 10% buffered formalin for 24 h. After 24 hours, the ear tissue was dehydrated in a graded concentration of ethanol (30%, 50% & 70% ethanol every 24 hours) at 4° C. Further, the tissue was processed in an automated tissue processor (Leica ASP300) and embedded into paraffin using Embedding Centre (Leica EG1150). The paraffin-embedded tissue was sectioned at […] size using a fully automatic Microtome (Leica RM2265). The tissue sections were subjected to H&E staining using an automated slide Stainer (Leica ST5020) using standard staining protocol. After staining, the slides were dried under a fume hood and mounted with DPX. For the MCs detection, the sectioned ear tissue was subjected to Toluidine blue O staining according to the available online protocol (http://www.ihcworld.com/_protocols/special_stains/toluidine_blue.htm). Images were captured under 10× and 20× magnification using a Nikon Eclipse Ni-U, upright microscope, and Nikon DS-Ri2 microscopic camera (Nikon, Tokyo, Japan).

Compound | IC50 (Human LAD-2 mast cells) | IC50 (MRGPRX2) | efficacy in Ca2+ flux reduction at 12.5 μM, 25 μM and 50 μM (Human LAD-2 MCs) | reduction of C48/80 induced Ca2+ flux (Human LAD-2 MCs) | inhibition of C48/80 induced MCP-1 release (human LAD2 MCs) | increase in paw thickness (C57/BL/6N mice [1]) | Evans blue dye extravasation (C57/BL/6N mice [1]) | C48/80 induced body temperature change at 35 minutes (C57/BL/6N mice [2]) | C48/80 induced body temperature changes at 30 minutes (C57/BL/6N mice [2]) | percentage of degranulated MCs in ear tissue (mice ear tissue MCs) | systemic anaphylaxis symptoms (score 0-5) (C57/BL/6N mice [2]; 1 h)
COC(=O)c1ccc2cc(-c3cc4c5c(cccc5c3)C(=O)N(C)C4=O)c(NC(N)=O)cc2c1 [GE0117] | 20.8 µM | 9.79 µM | higher efficacy at all three concentrations | significant concentration-dependent reduction | significantly inhibits the release of MCP-1 at all the tested concentrations | significantly (***P<0.001) attenuated | significantly (***P<0.001) attenuated | significantly reversed the body temperature change | – | – | –
COC(=O)c1ccc2cc(-c3cc4c5c(cccc5c3)C(=O)N(C)C4=O)c(C(=O)OC)cc2c1 [GE0118] | 18.2 µM | 8.91 µM | – | significant concentration-dependent reduction | – | – | – | – | – | – | –
COC(=O)c1cc2cc(NC(N)=O)ccc2cc1-c1cc2c3c(cccc3c1)C(=O)N(C)C2=O [GE0119] | 25.5 µM | 20.1 µM | – | significant concentration-dependent reduction | – | – | – | – | – | – | –
COC(=O)c1cc2cc(NC(N)=O)ccc2cc1-c1ccc2c3c(cccc13)C(=O)C=C2 [GE1109] | 9.87 µM | 7.14 µM | higher efficacy at all three concentrations | significant concentration-dependent reduction | significant activity only at 25 μM, and 50 μM | significant (*P<0.05) antagonizing activity | significant (*P<0.05) antagonizing activity | significantly reversed the body temperature change | reversed the C48/80 induced body temperature changes | reduces the MCs degranulation | –
COC(=O)c1ccc2cc(-c3cc4c5c(c(O)ccc5c3)C(C)C(C=O)=C4)c(C(=O)OC)cc2c1 (stereo not drawn) [GE1110] | 23.4 µM | 8.93 µM | higher efficacy at all three concentrations | significant concentration-dependent reduction | – | – | – | – | – | – | –
COC(=O)c1cc2cc(NC(N)=O)ccc2cc1-c1cc2c3c(c(O)ccc3c1)C(C)C(C=O)=C2 (stereo not drawn) [GE1111] | 4.7 µM | 9.42 µM | higher efficacy at all three concentrations | significant concentration-dependent reduction | significantly inhibits the release of MCP-1 at all the tested concentrations | significantly (***P<0.001) attenuated | significantly (***P<0.001) attenuated | significantly reversed the body temperature change | reversed the C48/80 induced body temperature changes | reduces the MCs degranulation | rehabilitated the compound 48/80 induced hypothermia and severity of anaphylaxis symptoms
O=c1c(-c2ccc(O)cc2)coc2cc(O)cc(O)c12 [genistein, reference compound] | 30.3 µM | 31.7 µM | – | significant (**P<0.001) Ca^2+ flux reduction at 50 μM concentration only | – | significant (*P<0.05) antagonizing activity | significant (*P<0.05) antagonizing activity | significantly reversed the body temperature change | – | – | –
